Test results as given in patent US12486280B2, “CDK inhibitors and uses thereof” (California Institute of Technology, priority 2018, dated 2025).
≈ marks a conversion by molar mass, not a printed value. Where two headings read alike, the source gives them in different places.

Tests used:
CDK4 = CDK4 (Homo sapiens (Human), UniProt P11802); assay: Cdk4 and 6 Enzymatic Inhibition Assay (radiometric 33PanQinase, Ki determination); format: biochemical
Method: (§1) 10 distinct concentrations were prepared, with a dilution endpoint of 6×10^−9 M in 100% DMSO. 100% DMSO was used as a control. 10 μL from each of the serial dilutions were aliquoted into separate wells of a 96-well plate and 90 μL of water were added to each of those wells. The plate was shaken thoroughly, and 5 μL from each of the plate's wells were transferred into wells of the assay plate. The final volume of wells in the assay plate was 50 μL. A11 compounds were tested at 10 assay concentrations in the range from 2×10^−6 M to 6×10^−11 M. The final DMSO concentration in the wells of the assay plate was 1% in all cases.
(§2) A radiometric protein kinase assay (33PanQinase® Activity Assay) was used for measuring the kinase activity of six protein kinases. A11 kinase assays were performed in 96-well FlashPlates™ from PerkinElmer (Boston, MA, USA). The assay for all protein kinases contained 70 mM HEPES-NaOH pH 7.5, 3 mM MgCl2, 3 mM MnCl2, 3 μM Na-orthovanadate, 1.2 mM DTT, 50 μg/mL PEG20000, ATP [γ-33P]-ATP (approx. 9×1005 cpm per well), protein kinase and substrate. The reaction cocktails were incubated at 30° C. for 60 minutes. The reaction was stopped with 50 μL of 2% (v/v) H3PO4, and plates were aspirated and washed two times with 200 μL 0.9% (w/v) NaCl. Incorporation of ^33Pi was determined with a microplate scintillation counter (Microbeta, Wallac).

CDK6 = CDK6 (Homo sapiens (Human), UniProt Q00534); assay: as above; format: biochemical
Chain of CDK6 (Q00534 whole entry): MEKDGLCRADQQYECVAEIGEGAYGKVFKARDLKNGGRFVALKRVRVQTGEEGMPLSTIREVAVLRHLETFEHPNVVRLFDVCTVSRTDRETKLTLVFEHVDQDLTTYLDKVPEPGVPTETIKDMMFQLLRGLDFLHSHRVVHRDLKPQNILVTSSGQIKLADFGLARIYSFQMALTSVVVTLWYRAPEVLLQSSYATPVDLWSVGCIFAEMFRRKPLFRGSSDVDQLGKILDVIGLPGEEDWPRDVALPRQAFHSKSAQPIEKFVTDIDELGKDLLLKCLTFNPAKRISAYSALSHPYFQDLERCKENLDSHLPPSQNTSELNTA
Chain of CDK6 (P24385 whole entry partner): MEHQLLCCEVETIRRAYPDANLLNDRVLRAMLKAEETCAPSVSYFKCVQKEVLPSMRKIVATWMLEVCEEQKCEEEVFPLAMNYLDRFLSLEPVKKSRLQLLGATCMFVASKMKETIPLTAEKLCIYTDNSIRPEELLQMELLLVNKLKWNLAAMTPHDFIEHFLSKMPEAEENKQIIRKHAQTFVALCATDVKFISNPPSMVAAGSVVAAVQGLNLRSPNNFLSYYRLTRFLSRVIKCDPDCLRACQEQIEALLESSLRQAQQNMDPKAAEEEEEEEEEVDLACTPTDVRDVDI
Method: as §1, §2

[1] = Caco-2 Assay (Papp A to B); conditions: human, Caco-2, pH 7.4
[2] = Measurement of Compound Metabolic Stability in hepatocytes
[3] = test system: CYP isozymes (IC50s averaged over the isozymes); assay: CYP Enzymatic Inhibition Assay in human liver microsomes
[4] = test system: drug-resistant cell lines of Table 2 (NCI-H1437, OV207, HCC1806, NCI-H2172); assay: Cell Line Growth Retardation Assay, resistant cohort; format: cell-based, human; conditions: Homo sapiens, […], geometric mean over resistant cohort; 6 days growth; read-out: AvgResIC50
Method: (§3) Cells were seeded at densities of 1,000-5,000 cells per well in 48-well tissue culture plates. After a 24 hours rest period, cells were treated with compound at 10 μM, 2 μM, 0.4 μM, 0.08 μM, 0.016 μM, and 0.0032 μM. A group of cells were treated with the vehicle in which the compound was prepared and served as a control. The cells were grown in the presence of compounds for 6 days and were counted on day 0 and day 6. A11 cell counting was performed using a Synentec Cellavista plate imager. […] Growth inhibition was calculated as a ratio of cell population doublings in the presence of compound versus the absence of compound. […] IC50 values for each compound (see Table 3; reported in μM) were calculated by fitting curves to data points from each dose-response assay using the Proc NLIN function in SAS for Windows version 9.2 (SAS Institute, Inc.).
(§4) These sensitive and resistant cohorts were interrogated for response to each compound, and IC50s were calculated for each cell line using the same technique described above. Average IC50s for the sensitive and resistant cohorts were calculated as geometric means of the group. “Therapeutic Window” for each compound was calculated by dividing the average IC50 for the drug-resistant group by the average IC50 for the drug-sensitive group.

[5] = test system: drug-sensitive cell lines of Table 2 (EFM-19, MDA-MB-453, T-47D, ZR-75-1, NCI-H441, OVTOKO, NCI-H1838); assay: Cell Line Growth Retardation Assay, sensitive cohort; format: cell-based, human; conditions: for IC50: Homo sapiens, geometric mean over sensitive cohort, 6 days growth, read-out: AvgSensIC50; for Ther Window: average IC50 drug-resistant group divided by average IC50 drug-sensitive group
Method: as §3, §4

hERG potassium channels = hERG potassium channels (Homo sapiens (Human), UniProt Q12809); assay: hERG Inhibition Assay (QPatch automated patch clamp, CHO cells); conditions: percent of control current
Chain of hERG potassium channels (Q12809 whole entry): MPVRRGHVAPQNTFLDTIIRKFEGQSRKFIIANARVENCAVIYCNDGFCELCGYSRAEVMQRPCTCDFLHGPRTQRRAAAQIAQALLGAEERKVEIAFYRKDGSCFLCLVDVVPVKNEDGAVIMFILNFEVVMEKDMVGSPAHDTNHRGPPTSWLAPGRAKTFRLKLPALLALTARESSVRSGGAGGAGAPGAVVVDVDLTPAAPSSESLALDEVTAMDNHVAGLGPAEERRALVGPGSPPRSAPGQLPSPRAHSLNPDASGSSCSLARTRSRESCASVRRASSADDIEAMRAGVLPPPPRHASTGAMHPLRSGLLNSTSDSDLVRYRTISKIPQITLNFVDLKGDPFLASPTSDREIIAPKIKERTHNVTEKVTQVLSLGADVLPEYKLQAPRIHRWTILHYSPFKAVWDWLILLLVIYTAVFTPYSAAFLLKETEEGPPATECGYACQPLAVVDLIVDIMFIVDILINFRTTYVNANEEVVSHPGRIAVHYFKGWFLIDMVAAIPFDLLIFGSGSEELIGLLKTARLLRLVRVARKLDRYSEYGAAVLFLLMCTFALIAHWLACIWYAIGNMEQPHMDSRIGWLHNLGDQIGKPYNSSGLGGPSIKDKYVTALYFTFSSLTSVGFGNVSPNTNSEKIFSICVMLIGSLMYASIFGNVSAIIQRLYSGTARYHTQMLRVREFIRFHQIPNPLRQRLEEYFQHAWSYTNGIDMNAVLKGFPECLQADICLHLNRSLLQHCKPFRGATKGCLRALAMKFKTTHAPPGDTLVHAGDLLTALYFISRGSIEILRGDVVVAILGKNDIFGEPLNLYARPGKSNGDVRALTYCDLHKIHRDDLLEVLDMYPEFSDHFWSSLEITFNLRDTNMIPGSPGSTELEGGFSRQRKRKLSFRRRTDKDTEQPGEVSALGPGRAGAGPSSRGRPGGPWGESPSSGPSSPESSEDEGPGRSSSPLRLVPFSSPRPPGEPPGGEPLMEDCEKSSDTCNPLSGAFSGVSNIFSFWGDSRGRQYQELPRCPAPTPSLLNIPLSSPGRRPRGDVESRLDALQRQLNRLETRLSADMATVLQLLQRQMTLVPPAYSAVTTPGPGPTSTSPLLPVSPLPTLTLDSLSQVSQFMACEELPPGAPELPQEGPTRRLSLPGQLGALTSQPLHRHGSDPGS

[6] = Compound Solubility Assay (kinetic solubility); format: physicochemical; conditions: kinetic from dmso stock
Method: The relative kinetic solubility of each compound was determined at both low (1.2) and neutral (7.4) pH. Compounds were prepared at 10 mM stocks. […] Compounds were allowed to shake at room temperature for 24 hours in 50 mM phosphate buffer pH 7.4, or in SGF buffer pH 1.2 at 37° C. for 24 hours.

Chain of CDK4 (P11802 whole entry): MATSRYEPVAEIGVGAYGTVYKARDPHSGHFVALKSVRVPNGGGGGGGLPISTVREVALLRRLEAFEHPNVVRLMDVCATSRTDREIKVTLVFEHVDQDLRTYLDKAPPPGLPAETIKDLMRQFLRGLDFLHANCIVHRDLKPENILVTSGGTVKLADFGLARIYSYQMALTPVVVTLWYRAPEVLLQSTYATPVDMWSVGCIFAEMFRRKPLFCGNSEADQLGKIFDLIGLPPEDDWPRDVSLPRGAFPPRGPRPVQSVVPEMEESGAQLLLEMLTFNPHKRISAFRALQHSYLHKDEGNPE
Chain of CDK4 (P24385 whole entry partner): as the sequence (P24385 whole entry partner) above

Compound | Ki (CDK4) [nM] | Ki (CDK6) [nM] | Papp A→B at 2 h, 2 μM [1] [×10⁻⁶ cm/s] | half-life at 1 μM [2] [h] | IC50 at 10 min [3] [nM] | IC50 [4] [nM] | IC50 [5] [nM] | solubility kinetic at 24 h ([6]; 50 mM phosphate buffer, pH 7.4, aqueous buffer, read-out: KS7) [µM] | solubility kinetic at 24 h ([6]; simulated gastric fluid, kinetic solubility, SGF buffer pH 1.2, 37° C., 24 hours, read-out: KS1) [µM] | Ther Window [5] | hERG (hERG potassium channels) [%]
Cc1nc2c(F)cc(-c3nc(Nc4ccc(CN5CCO[C@](C)(CCN)C5)cn4)ncc3F)cc2n1C(C)C [Compound A21, (R)—N-(5-((2-(2-aminoethyl)-2-methylmorpholino)methyl)pyridin-2-yl)-5-fluoro-4-(4-fluoro-1-isopropyl-2-methyl-1H-benzo[d]imidazol-6-yl)pyrimidin-2-amine] |  |  |  | 1.61 |  | 1000 | 150 |  |  | 6.58 | 
Cc1nc2c(F)cc(-c3nc(Nc4ccc(CN5CCO[C@@]6(CCN(C)C6)C5)cn4)ncc3F)cc2n1C(C)C [Compound A39, (R)-5-fluoro-4-(4-fluoro-1-isopropyl-2-methyl-1H-benzo[d]imidazol-6-yl)-N-(5-((2-methyl-6-oxa-2,9-diazaspiro[4.5]decan-9-yl)methyl)pyridin-2-yl)pyrimidin-2-amine] | 1.83 | 6.62 |  |  |  | 980 | 300 |  |  | 3.25 | 14.81
CC[C@@]1(CCN(C)C)CN(Cc2ccc(Nc3ncc(F)c(-c4cc(F)c5nc(C)n(C(C)C)c5c4)n3)nc2)CCO1 [Compound A20, (R)—N-(5-((2-(2-(dimethylamino)ethyl)-2-ethylmorpholino)methyl)pyridin-2-yl)-5-fluoro-4-(4-fluoro-1-isopropyl-2-methyl-1H-benzo[d]imidazol-6-yl)pyrimidin-2-amine] | 0.55 | 3.69 | 0.07 | 1.68 | 24800 | 1000 | 80 |  |  | 12.21 | 32.36
CC(=O)c1c(C)c2cnc(Nc3ccc(N4CCNCC4)cn3)nc2n(C2CCCC2)c1=O [Palbociclib, reference compound] |  |  | 0.27 | 0.915 | 97700 |  |  | 29.6 (≈ 13.2 µg/mL) | 196 (≈ 87.6 µg/mL) | 9.37 | 
CNCC[C@]1(C)CN(Cc2ccc(Nc3ncc(F)c(-c4cc(F)c5nc(C)n(C(C)C)c5c4)n3)nc2)CCO1 [Compound A5, (R)-5-fluoro-4-(4-fluoro-1-isopropyl-2-methyl-1H-benzo[d]imidazol-6-yl)-N-(5-((2-methyl-2-(2-(methylamino)ethyl)morpholino)methyl)pyridin-2-yl)pyrimidin-2-amine] | 1.21 | 6.26 |  |  |  | 960 | 180 |  |  | 5.33 | 14.76
Cc1nc2c(F)cc(-c3nc(Nc4ccc(CN5CCO[C@](C)(CCN6CC(C)(O)C6)C5)cn4)ncc3F)cc2n1C(C)C [Compound A10, (R)-1-(2-(4-((6-((5-fluoro-4-(4-fluoro-1-isopropyl-2-methyl-1H-benzo[d]imidazol-6-yl)pyrimidin-2-yl)amino)pyridin-3-yl)methyl)-2-methylmorpholin-2-yl)ethyl)-3-methylazetidin-3-ol] | 0.96 | 5.52 | 0.01 | 1.11 |  | 970 | 70 |  |  | 14.08 | 

More lines, in order of falling IC50 [4], values ahead:

Ki (CDK4) [nM] | Ki (CDK6) [nM] | Papp A→B at 2 h, 2 μM [1] [×10⁻⁶ cm/s] | half-life at 1 μM [2] [h] | IC50 at 10 min [3] [nM] | IC50 [4] [nM] | IC50 [5] [nM] | solubility kinetic at 24 h ([6]; 50 mM phosphate buffer, pH 7.4, aqueous buffer, read-out: KS7) [µM] | solubility kinetic at 24 h ([6]; simulated gastric fluid, kinetic solubility, SGF buffer pH 1.2, 37° C., 24 hours, read-out: KS1) [µM] | Compound | Ther Window [5] | hERG (hERG potassium channels) [%]
1 | 4.24 | 0.04 | 1.24 |  | 920 | 160 |  |  | Cc1nc2c(F)cc(-c3nc(Nc4ccc(CN5CCO[C@](C)(CCNC(C)(C)C)C5)cn4)ncc3F)cc2n1C(C)C [Compound A7, (R)—N-(5-((2-(2-(tert-butylamino)ethyl)-2-methylmorpholino)methyl)pyridin-2-yl)-5-fluoro-4-(4-fluoro-1-isopropyl-2-methyl-1H-benzo[d]imidazol-6-yl)pyrimidin-2-amine] | 5.75 | 
1.55 | 7.62 | 0.11 | 1.13 | 26800 | 920 | 90 |  |  | COC1(C)CN(CC[C@]2(C)CN(Cc3ccc(Nc4ncc(F)c(-c5cc(F)c6nc(C)n(C(C)C)c6c5)n4)nc3)CCO2)C1 [Compound A18, (R)-5-fluoro-4-(4-fluoro-1-isopropyl-2-methyl-1H-benzo[d]imidazol-6-yl)-N-(5-((2-(2-(3-methoxy-3-methylazetidin-1-yl)ethyl)-2-methylmorpholino)methyl)pyridin-2-yl)pyrimidin-2-amine] | 10.77 | 21.45
1.42 | 5.81 | 0.01 | 3.61 | 47900 | 870 | 60 |  |  | Cc1nc2c(F)cc(-c3nc(Nc4ccc(CN5CCO[C@](C)(CCN6CCCC6)C5)cn4)ncc3F)cc2n1C(C)C [Compound A16, (R)-5-fluoro-4-(4-fluoro-1-isopropyl-2-methyl-1H-benzo[d]imidazol-6-yl)-N-(5-((2-methyl-2-(2-(pyrrolidin-1-yl)ethyl)morpholino)methyl)pyridin-2-yl)pyrimidin-2-amine] | 15.20 | 18.09
1.03 | 5.25 | 0.02 | 3.61 | 51700 | 850 | 50 |  |  | Cc1nc2c(F)cc(-c3nc(Nc4ccc(CN5CCO[C@](C)(CCN6CCC6)C5)cn4)ncc3F)cc2n1C(C)C [Compound A17, (R)—N-(5-((2-(2-(azetidin-1-yl)ethyl)-2-methylmorpholino)methyl)pyridin-2-yl)-5-fluoro-4-(4-fluoro-1-isopropyl-2-methyl-1H-benzo[d]imidazol-6-yl)pyrimidin-2-amine] | 15.41 | 20.47
0.92 | 4.79 | 1.02 | 0.148 | 15200 | 710 | 70 |  |  | Cc1nc2c(F)cc(-c3nc(Nc4ccc(CN5CCO[C@](C)(CCN6CC(F)C6)C5)cn4)ncc3F)cc2n1C(C)C [Compound A13] | 10.82 | 23.72
0.78 | 4.04 | 0.8 | 0.322 | 17100 | 590 | 80 |  |  | Cc1nc2c(F)cc(-c3nc(Nc4ccc(CN5CCO[C@](C)(CCN6CC[C@@H](F)C6)C5)cn4)ncc3F)cc2n1C(C)C [Compound A15, 5-fluoro-4-(4-fluoro-1-isopropyl-2-methyl-1H-benzo[d]imidazol-6-yl)-N-(5-(((R)-2-(2-((R)-3-fluoropyrrolidin-1-yl)ethyl)-2-methylmorpholino)methyl)pyridin-2-yl)pyrimidin-2-amine] | 7.07 | 17.46
